For experiment [1], the system named is brain. In words: Matured TTM-001 and TTM-002 variants, NGS enrichment in mouse brain. The class given is in vivo, mice. The settings on record: relative to AAV9 control.
Experiment [2] deals with brains, heart, liver, muscle, and DRG of the NHPs. The experiment can be described thus: Maturation of TTM-001 and TTM-002 capsids, NGS enrichment in NHP tissues. It is filed as in vivo. As to conditions: relative to AAV9 control. The procedure, abridged: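 Variants carry mutations within and flanking the loop IV peptide insert: positions 450–466 were triplet-randomized, while positions 449–466 received low-frequency point mutations. The combined pool went into two NHPs, and each peptide was scored by NGS enrichment ratio against AAV9.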

[3] abbreviates: NGS fold-enrichment of matured AAV capsid variants, NHP brain, RNA.
[4] abbreviates: NGS fold-enrichment, mouse brain.
Where [5] appears, read: NGS fold-enrichment of RNA, NHP brain.
The mark [6] stands for this setting: NGS fold-enrichment, NHP liver DNA.
[7] abbreviates: NGS fold-enrichment, NHP liver RNA.
Where [8] appears, read: NGS fold-enrichment, NHP muscle.

As to KTINGGGSPHSKAQNPQA, the “Fold Enrichment relative to AAV9, Brain (Mouse)” value in experiment [1] (mouse brain) is listed as 102.792 fold. The “Fold Enrichment relative to AAV9, Brain (NHP)” value in experiment [2] (setting [3]) was 51.574 fold. The “Fold Enrichment relative to AAV9, DRG (NHP)” value in experiment [2] (NHP DRG) is on record as 0.000 fold. In addition, the “Fold Enrichment relative to AAV9, Heart (NHP)” value in experiment [2] (NHP heart) amounted to 0.000 fold. For the same sequence, the “Fold Enrichment relative to AAV9, Liver DNA (NHP)” value in experiment [2] (NHP liver, DNA) came out at 0.000 fold. In addition, in experiment [2] (NHP liver, RNA), the “Fold Enrichment relative to AAV9, Liver RNA (NHP)” value turned out to be 0.192 fold. Moreover, the “Fold Enrichment relative to AAV9, Muscle (NHP)” value in experiment [2] (NHP muscle) came to 0.000 fold.
KTNNGGGSPHSKAQNLQT: the “Fold Enrichment relative to AAV9, Brain (Mouse)” value in experiment [1] (mouse brain) is reported as 80.506 fold. In experiment [2] (setting [3]), the “Fold Enrichment relative to AAV9, Brain (NHP)” value was 54.963 fold. For the same sequence, in experiment [2] (NHP DRG), the “Fold Enrichment relative to AAV9, DRG (NHP)” value is listed as 0.000 fold. In addition, the “Fold Enrichment relative to AAV9, Heart (NHP)” value in experiment [2] (NHP heart) was 0.000 fold. For the same sequence, in experiment [2] (NHP liver, DNA), the “Fold Enrichment relative to AAV9, Liver DNA (NHP)” value turned out to be 0.089 fold. Also, the “Fold Enrichment relative to AAV9, Liver RNA (NHP)” value in experiment [2] (NHP liver, RNA) is 0.000 fold. Further, in experiment [2] (NHP muscle), the “Fold Enrichment relative to AAV9, Muscle (NHP)” value is on record as 0.000 fold.
Turning to “KVINGHDSPHKSGQTQQT (peptide inserted in AAV capsid)”, the “Fold Enrichment relative to AAV9, Brain (Mouse)” value in experiment [1] (setting [4]) worked out at 7.391 fold. In experiment [2] (setting [5]), the “Fold Enrichment relative to AAV9, Brain (NHP)” value was 91.665 fold. Further, the “Fold Enrichment relative to AAV9, DRG (NHP)” value in experiment [2] (NGS fold-enrichment, NHP DRG) was determined as 0.000 fold. Besides, the “Fold Enrichment relative to AAV9, Heart (NHP)” value in experiment [2] (NGS fold-enrichment, NHP heart) was determined as 0.055 fold. In addition, in experiment [2] (setting [6]), the “Fold Enrichment relative to AAV9, Liver DNA (NHP)” value is given as 0.000 fold. Also, in experiment [2] (setting [7]), the “Fold Enrichment relative to AAV9, Liver RNA (NHP)” value worked out at 0.311 fold. For the same sequence, the “Fold Enrichment relative to AAV9, Muscle (NHP)” value in experiment [2] (setting [8]) came out at 1.526 fold.
In the case of KTEQVSGSPHSKAQNQQT, the “Fold Enrichment relative to AAV9, Brain (Mouse)” value in experiment [1] (mouse brain) is 88.487 fold. Moreover, the “Fold Enrichment relative to AAV9, Brain (NHP)” value in experiment [2] (setting [3]) was 58.247 fold. For the same sequence, the “Fold Enrichment relative to AAV9, DRG (NHP)” value in experiment [2] (NHP DRG) was found to be 0.000 fold. The “Fold Enrichment relative to AAV9, Heart (NHP)” value in experiment [2] (NHP heart) was 0.000 fold. Besides, the “Fold Enrichment relative to AAV9, Liver DNA (NHP)” value in experiment [2] (NHP liver, DNA) is listed as 0.081 fold. The “Fold Enrichment relative to AAV9, Liver RNA (NHP)” value in experiment [2] (NHP liver, RNA) is given as 0.000 fold. For the same sequence, the “Fold Enrichment relative to AAV9, Muscle (NHP)” value in experiment [2] (NHP muscle) stood at 0.000 fold.
In the case of KTVNGGGSPHSKAQNLQT, the “Fold Enrichment relative to AAV9, Brain (Mouse)” value in experiment [1] (mouse brain) is recorded as 83.215 fold. For the same sequence, in experiment [2] (setting [3]), the “Fold Enrichment relative to AAV9, Brain (NHP)” value was 52.788 fold. In experiment [2] (NHP DRG), the “Fold Enrichment relative to AAV9, DRG (NHP)” value was 0.000 fold. Moreover, the “Fold Enrichment relative to AAV9, Heart (NHP)” value in experiment [2] (NHP heart) stood at 0.031 fold. Besides, in experiment [2] (NHP liver, DNA), the “Fold Enrichment relative to AAV9, Liver DNA (NHP)” value worked out at 0.165 fold. Also, the “Fold Enrichment relative to AAV9, Liver RNA (NHP)” value in experiment [2] (NHP liver, RNA) is listed as 0.000 fold. Also, the “Fold Enrichment relative to AAV9, Muscle (NHP)” value in experiment [2] (NHP muscle) amounted to 0.000 fold.
As for KTITGHDSPHKSGQHLQT, the “Fold Enrichment relative to AAV9, Brain (Mouse)” value in experiment [1] (setting [4]) is reported as 4.187 fold. In addition, the “Fold Enrichment relative to AAV9, Brain (NHP)” value in experiment [2] (setting [5]) was 137.945 fold. Besides, the “Fold Enrichment relative to AAV9, DRG (NHP)” value in experiment [2] (NGS fold-enrichment, NHP DRG) worked out at 0.000 fold. Moreover, the “Fold Enrichment relative to AAV9, Heart (NHP)” value in experiment [2] (NGS fold-enrichment, NHP heart) was 0.072 fold. In experiment [2] (setting [6]), the “Fold Enrichment relative to AAV9, Liver DNA (NHP)” value was 0.000 fold. Further, the “Fold Enrichment relative to AAV9, Liver RNA (NHP)” value in experiment [2] (setting [7]) came out at 0.000 fold. Further, the “Fold Enrichment relative to AAV9, Muscle (NHP)” value in experiment [2] (setting [8]) turned out to be 0.000 fold.
Consider KTVNGGGSPHSKAQNQQS, for which the “Fold Enrichment relative to AAV9, Brain (Mouse)” value in experiment [1] (NGS fold-enrichment, brain of mice) is recorded as 61.847 fold. The “Fold Enrichment relative to AAV9, DRG (NHP)” value in experiment [2] (NGS fold-enrichment, DRG of NHPs) is given as 0.062 fold. Moreover, the “Fold Enrichment relative to AAV9, Brain (NHP)” value in experiment [2] (NGS fold-enrichment, RNA, brain of NHPs) turned out to be 59.871 fold. Also, in experiment [2] (NGS fold-enrichment, heart of NHPs), the “Fold Enrichment relative to AAV9, Heart (NHP)” value was determined as 0.020 fold. Also, the “Fold Enrichment relative to AAV9, Liver DNA (NHP)” value in experiment [2] (NGS fold-enrichment, liver DNA of NHPs) is given as 0.185 fold. In addition, in experiment [2] (NGS fold-enrichment, liver RNA of NHPs), the “Fold Enrichment relative to AAV9, Liver RNA (NHP)” value is 0.080 fold. The “Fold Enrichment relative to AAV9, Muscle (NHP)” value in experiment [2] (NGS fold-enrichment, muscle of NHPs) is listed as 0.000 fold.
Turning to KTINGSGSPHSKAQLHHT, the “Fold Enrichment relative to AAV9, Brain (Mouse)” value in experiment [1] (mouse brain) was determined as 58.418 fold. The “Fold Enrichment relative to AAV9, Brain (NHP)” value in experiment [2] (setting [3]) amounted to 56.815 fold. The “Fold Enrichment relative to AAV9, DRG (NHP)” value in experiment [2] (NHP DRG) was found to be 0.025 fold. The “Fold Enrichment relative to AAV9, Heart (NHP)” value in experiment [2] (NHP heart) is given as 0.000 fold. Besides, the “Fold Enrichment relative to AAV9, Liver DNA (NHP)” value in experiment [2] (NHP liver, DNA) was determined as 0.368 fold. Also, the “Fold Enrichment relative to AAV9, Liver RNA (NHP)” value in experiment [2] (NHP liver, RNA) turned out to be 0.712 fold. Also, the “Fold Enrichment relative to AAV9, Muscle (NHP)” value in experiment [2] (NHP muscle) stood at 0.010 fold.
KSINGSGSPHSKAPNLQT: the “Fold Enrichment relative to AAV9, Brain (Mouse)” value in experiment [1] (mouse brain) amounted to 59.270 fold. In addition, the “Fold Enrichment relative to AAV9, Brain (NHP)” value in experiment [2] (setting [3]) is recorded as 51.812 fold. The “Fold Enrichment relative to AAV9, DRG (NHP)” value in experiment [2] (NHP DRG) worked out at 0.000 fold. Besides, the “Fold Enrichment relative to AAV9, Heart (NHP)” value in experiment [2] (NHP heart) amounted to 0.256 fold. The “Fold Enrichment relative to AAV9, Liver DNA (NHP)” value in experiment [2] (NHP liver, DNA) is on record as 0.139 fold. The “Fold Enrichment relative to AAV9, Liver RNA (NHP)” value in experiment [2] (NHP liver, RNA) came to 0.085 fold. Further, the “Fold Enrichment relative to AAV9, Muscle (NHP)” value in experiment [2] (NHP muscle) is 0.000 fold.

For the origin of these results see patent US20260250318A1, “COMPOSITIONS AND METHODS FOR CROSSING THE BLOOD BRAIN BARRIER” (VOYAGER THERAPEUTICS, INC., priority 2022, published 2026).
